The values below come from patent US20200270588A1, “GLUCOSYL TRANSFERASE POLYPEPTIDES AND METHODS OF USE” (Syngenta Participations AG, priority 2017, published 2020).

“And” between values parts separate entries of the source, which are not always exact repeats. Equal entries are not always repeated.

The target in experiment [1] is T1, Zea mays bx9 glucosyl transferase (C-terminally his tagged SEQ ID NO: 1) (Zea mays, UniProt B4G072).
T1 construct: His tag (C); made in house; host or cells: E. coli BL21 (DE3), pET24a
T1 sequence (B4G072 1-462): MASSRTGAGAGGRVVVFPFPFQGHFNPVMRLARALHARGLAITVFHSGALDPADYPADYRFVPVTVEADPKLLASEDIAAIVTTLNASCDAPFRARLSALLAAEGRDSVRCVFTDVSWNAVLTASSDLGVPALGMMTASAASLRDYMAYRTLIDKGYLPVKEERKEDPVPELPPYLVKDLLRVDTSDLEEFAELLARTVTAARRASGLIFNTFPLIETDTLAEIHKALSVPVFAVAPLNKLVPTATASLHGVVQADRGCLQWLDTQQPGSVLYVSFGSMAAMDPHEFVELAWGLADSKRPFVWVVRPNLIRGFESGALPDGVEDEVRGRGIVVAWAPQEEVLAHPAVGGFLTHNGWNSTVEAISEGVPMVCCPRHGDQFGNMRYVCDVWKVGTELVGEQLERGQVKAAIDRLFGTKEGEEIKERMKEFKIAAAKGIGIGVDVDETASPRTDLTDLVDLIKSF
In words: UDP-Glo glucosyl transferase assay, purified enzyme. It is filed as biochemical.

Experiment [2] deals with T2, Zea mays bx8 glucosyl transferase (his tagged SEQ ID NO: 2) (Zea mays, UniProt Q8W2B7).
T2 construct: His tag (N); made in house; host or cells: E. coli BL21 (DE3), pET24a
T2 sequence (Q8W2B7 1-459): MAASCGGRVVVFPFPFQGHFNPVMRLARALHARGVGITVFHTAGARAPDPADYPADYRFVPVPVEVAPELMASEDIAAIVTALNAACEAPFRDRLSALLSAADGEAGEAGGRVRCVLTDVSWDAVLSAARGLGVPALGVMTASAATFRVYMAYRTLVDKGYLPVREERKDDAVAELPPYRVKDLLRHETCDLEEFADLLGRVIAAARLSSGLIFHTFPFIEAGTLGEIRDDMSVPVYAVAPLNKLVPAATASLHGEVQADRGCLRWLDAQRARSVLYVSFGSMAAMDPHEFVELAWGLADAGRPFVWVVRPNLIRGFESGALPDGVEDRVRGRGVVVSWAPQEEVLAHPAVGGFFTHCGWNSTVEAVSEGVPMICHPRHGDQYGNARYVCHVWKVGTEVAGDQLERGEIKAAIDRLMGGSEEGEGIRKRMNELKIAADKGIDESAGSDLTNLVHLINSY
Described as above. It is filed as biochemical. To be noted: for Activity: herbicide 0.500 mM, N-terminally his tagged, limit of detection about 0.001. As to the method:
Glucosyl transferase activity is assayed via measurement of acceptor substrate-dependent production of UDP from ultrapure UDP-glucose using the Promega UDP-Glo™ method and according to the manufacturer's instructions. Assays are run in 96 well microtiter plates.
Enzyme, typically at a stock concentration of ˜2 mg/ml is diluted to an appropriate concentration in 50 mM K^+ Hepes buffer at pH7.5 containing 0.5 mg/mL bovine serum albumin (BSA) and 5 ul aliquots of this diluted enzyme added to each well of a Perkin Elmer white ½ area 96 well plate. […] Assays are run for an appropriate time (usually 10 to 60 min) so that the amount of UDP formed lies within the most nearly linear part of the UDP standard curve and are stopped with the addition and mixing of 25 ul UDP-Glo™ detection reagent (prepared as described below). Plates are then incubated at room temperature for 60 minutes and then read in a luminescence plate reader (Perkin Elmer Envision 2130 Multilabel Reader). A UDP standard curve is run alongside each set of assays and reagent blank control assays run with DMSO in place of test herbicide. Typically, 300 pmol of UDP corresponds to a Relative Luminescence Unit (RLU) reading of about 1.5E7 and the response curve between 0 and 600 pmol is fitted to a polynomial function (see for example FIG. 2).
The UDP-Glo™ reagents are made up and used according to the manufacturer's instructions. Thus, Nucleotide Detection Buffer and ATP are combined to make nucleotide detection reagent (NDR) dispensed into aliquots and frozen to be freshly thawed before use.
Km and kcat values in respect of UDP-glucose are derived by carrying out experiments to measure initial rates over a suitable range of concentrations of UDP glucose out at a fixed near saturating concentration of acceptor substrate. Best fit values of kcat, Km and kcat/Km are obtained by direct fitting of the data to the Michaelis-Menten equation using Graphpad Prism™ software.
The glucosyl transferase activities of the mutant bx8-derived polypeptides expressed in these strains were initially assayed versus herbicide V as described in Example 1. The partly purified C-terminally his tagged w/t bx8 enzyme (SEQ ID No: 2) catalyzed glucosyl transfer to herbicide V at a low rate estimated to be less than about 0.002/s at 1 mM herbicide V which, because of a relatively high background of UDP formation in the DMSO (no substrate reagent control) was difficult to quantify using the luminescence assay. Thus further assays were run by LC/MS using which technique the formation of an O-beta glucosyl glucoside of herbicide V could more easily be confirmed but only quantified in a relative sense. Thus the various derivatives of C-terminally his tagged Zea mays bx8 SEQ ID No:2 were cloned and expressed in E. coli BL21 (DE3) as described in Example 1 and assayed in plates as crude extracts, as in Example 2, but monitored by LCMS rather than the luminescence assay.
Assays were carried out as described in Example 1. Partly purified C-terminally his tagged w/t Larkspur enzyme (SEQ ID No 10 with a 6 amino acid C-terminal tag) catalyzed glucosyl transfer to herbicide V at a rate estimated to be about 0.0065/s/pmol at 1 mM herbicide V. The similarly-tagged w/t bx-like enzymes from rye (SEQ ID No 11) and from wheat (SEQ ID No 4) were also active but only at levels close to the detection limit at ˜0.0015/s/pmol. Further examples of assay results from further experiments are depicted in Table 14. […]

Setting [3] is: 0.5 mM UDP-glucose, 25 C, pH 7.5, DMSO reagent blank as control.
[4] abbreviates: control = inactive H24A mutant of bx9 (asterisk).
The mark [5] stands for this setting: herbicide 0.500 mM, limit of detection about 0.001.
Where [6] appears, read: herbicide mM: V 0.300, VI 0.250, VII 0.210, IV, VIII, XI, XXI, XX, XVIII, XVI, XV, XIV 0.200, others 1.000.

Usually kcat stands for the number of substrate molecules converted per active site and unit of time at saturation. As for `CON1C(=O)N(c2cc(C(F)(F)F)ccn2)C(O)[C@@H]1C` (stereo partly drawn) [Compound VI], the turnover number (kcat) was 0.037 s⁻¹ and 0.044 s⁻¹ in experiment [1] (setting [3]); 0.0430 s⁻¹ in experiment [1] (setting [4]). Further, the Activity in experiment [1] (setting [5]) is 0.013 pmol/sec/pmol enzyme; in experiment [1] (setting [6]) it was 0.012 pmol/sec/pmol enzyme; in experiment [2], 0.000 pmol/sec/pmol enzyme.
In the case of `CN1CC(O)N(c2cc(C(F)(F)F)c(Cl)cn2)C1=O` (stereo not drawn) [XI], the Activity in experiment [1] (setting [5]) turned out to be 0.000 pmol/sec/pmol enzyme; in experiment [1] (setting [6]) it was 0.000 pmol/sec/pmol enzyme; in experiment [2] it was 0.001 pmol/sec/pmol enzyme.
Turning to `Cc1cnc(N2C(=O)N(C)CC2O)cc1C(F)(F)F` (stereo not drawn) [XVIII], the turnover number (kcat) in experiment [1] (setting [3]) stood at 0.0040 s⁻¹. For the same compound, the Activity in experiment [1] (setting [5]) was 0.002 pmol/sec/pmol enzyme; in experiment [1] (setting [6]) it was 0.001 pmol/sec/pmol enzyme; in experiment [2] it was 0.001 pmol/sec/pmol enzyme.
In the case of `CN1CC(O)N(c2cc(C(F)(F)F)ccn2)C1=O` (stereo not drawn) [Compound V], the kcat is 0.012 s⁻¹ and 0.021 s⁻¹ in experiment [1] (setting [3]); 0.0181 s⁻¹ in experiment [1] (setting [4]). In addition, the Activity worked out at 0.005 pmol/sec/pmol enzyme in experiment [1] (setting [5]), 0.005 pmol/sec/pmol enzyme in experiment [1] (setting [6]) and 0.000 pmol/sec/pmol enzyme in experiment [2]. Further, the “rate of glucosyl transfer” value in experiment [2] (1 mM herbicide V, partly purified C-terminally his tagged enzyme) is on record as “less than 0.002 /s”.
